Assay results reported in ChEMBL document CHEMBL1148365, “Rational design of new antituberculosis agents: receptor-independent four-dimensional quantitative structure-activity relationship analysis of a set of isoniazid derivatives” (2004).

Tested on: Mycobacterium tuberculosis
Experiment: Minimum inhibitory concentration against Mycobacterium tuberculosis var. bovis strain at 310K, with value expressed as pMIC i.e. -log of MIC (ug/mL).
Type: functional

Structure (SMILES) | pMIC
NNC(=O)c1ccccc1[N+](=O)[O-] | 0.52
NNC(=O)c1ccncn1 | 1.7
NNC(=O)c1ccc([N+](=O)[O-])cc1 | 1.92
NNC(=O)c1c[nH]cn1 | 2.7
NNC(=O)/C=C/c1ccccc1 | 3.4
NNC(=O)C1CCNCC1 | 0.22
NNC(=O)c1ccnc2ccccc12 | 1.1
NNC(=O)c1ccc(O)cc1 | 1.92
NNC(=O)c1ccc(Br)cc1 | 1.92
NNC(=O)c1cccc([N+](=O)[O-])c1 | 3.22
Cc1ncc(C(=O)NN)c(O)n1 | 0.4
CN(C)C(=O)N1CCC(C(=O)NN)CC1 | 0.22
COc1cc(C(=O)NN)ccc1O | 1.52
NNC(=O)c1cccc(N)c1 | 2.52
NNC(=O)c1ccncc1N | 2.82
NNC(=O)c1ccc(Cl)cc1 | 2.52
NNC(=O)c1ccccc1N | 1.52
NNC(=O)Cc1ccncc1 | 1

Structure (SMILES) | pMIC
NNC(=O)c1ccccn1 | 3.82
NNC(=O)c1cncs1 | 2
NNC(=O)c1ccnc(F)c1 | 3.4
NNC(=O)c1c[nH]c(S)n1 | 0.6
Cc1cnccc1C(=O)NN | 0.7
NNC(=O)C(O)c1ccccc1 (stereo unspecified) | 1.4
NNC(=O)Cc1ccccc1 | 1.92
NNC(=O)Cc1ccc(Cl)cc1 | 2
NNC(=O)C1Cc2ccccc2O1 (stereo unspecified) | 0.65
Cn1cncc1C(=O)NN | 0.52
NNC(=O)c1ccco1 | 4.22
NNC(=O)c1ccnc(Br)c1 | 1.82
NNC(=O)c1cscn1 | 1.82
CN1CCC(C(=O)NN)CC1 | 0.22
NNC(=O)c1ccccc1 [BENZOIC ACID HYDRAZIDE] | 3.22
NNC(=O)c1ccncc1 [ISONIAZID] | 4.2
NNC(=O)c1cccnc1 [NICOTINIC ACID HYDRAZIDE] | 2.7
NNC(=O)c1cnccn1 [PYRAZINE CARBOXYLIC ACID HYDRAZIDE] | 2.82
